Experimental data: US20120190703A1, “SALTS OF 13A-(S)DESOXYTYLOPHORININE, PREPARATION METHODS AND PHARMACEUTICAL COMPOSITIONS AND USES THEREOF” (priority 2009, published 2012)
Read-outs that look alike come from different tables or passages of the source. Marks after values point to notes of the source that are not given here.

Assays:
[1] = Plasma pharmacokinetics after oral administration in mice; settings: plasma
Description: To determine the pharmacokinetic characters of 13a-(S)-deoxytylophorinine and its salts, the studies about plasma pharmacokinetics and the character of distribution in brain were pursued.
Male ICR mice. Body weight 18˜22 g.
(+)-13a-(S)-deoxytylophorinine Tartrate, (+)-13a-(S)-deoxytylophorinine Maleate, (+)-13a-(S)-deoxytylophorinine Citrate. All were dissolved in distilled water as 0.6 mg/ml solution before experiment progressed.
72 mice were divided to 3 groups with 24 animals per group, fasting for 16 h and drinking water freely. […] Plasma was isolated by centrifugalization. After the salts were administered orally, the brain tissues of mice were collected at 5 min, 15 min, 2 h time points. 25% tissue homogenate was prepared with normal saline addition. 200 μL of homogenate and plasma were added isovolumic MeCN to precipitate protein. 5 μL of clear supernatant was analyzed by LC/MS/MS.
(+)-13a-(S)-deoxytylophorinine was dissolved in DMSO and then diluted with MeOH with concentration 10, 50, 100, 500, 1000 and 2500 ng/ml respectively. 10 μl of standard solutions of (+)-13a-(S)-deoxytylophorinine with different concentration above were added to 200 μl of blank plasma sequently to adjust the concentration to 0.5, 2.5, 5, 25, 50, 125 ng/ml respectively. MeCN was added to the solution to precipitate protein, and 5 μl of result clear supernatant was analyzed with LC/MS/MS. Linear regression was ran with the peak area of (+)-13a-(S)-deoxytylophorinine as ordinate and the concentrations as abscissa.

Solubility in water = format: physicochemical
mice Lewis lung cancer = settings: background art; cited from earlier work
[2] = preliminary toxic experiments, background art; cited from earlier work
H22 tumor-bearing mice = settings: intragastric once daily
Excerpt: To determine the pharmacodynamic characters of 13a-(S)-deoxytylophorinine and its salts, the impact of these compounds to the tumor growth in H22 tumor-bearing mice was surveyed.
Male Kunming mice were obtained from the Laboratory Animal Center, Academy of Military Medical Science. Body weight 18˜22 g. 6 animals per group, totally 10 groups, 60 animals.
(+)-13a-(S)-deoxytylophorinine, (+)-13a-(S)-deoxytylophorinine Tartrate, (+)-13a-(S)-deoxytylophorinine Maleate, (+)-13a-(S)-deoxytylophorinine Citrate, Cytoxane (CTX) as positive control.
(+)-13a-(S)-deoxytylophorinine was administered at high dose (5 mg/kg) and low dose (2.5 mg/kg). Three (+)-13a-(S)-deoxytylophorinine salts were administered at high dose and low dose as equal moles with their prototype (Tartrate: 7.05 mg/kg, 3.53 mg/kg; Malate: 6.60 mg/kg, 3.30 mg/kg; Citrate: 7.90 mg/kg, 3.95 mg/kg).
Animals were reared in SPF grade circumstance to be observed for 24 h. The tumor cells liquid which resuscitated in abdominal cavity of KM mice was diluted with aseptic normal saline at 1:3 ratio. The resulting liquid was inoculated subcutaneously at forelimb with 0.2 mL every animal. After the injection over, the animals were divided to […] with 6 animals per group.
Four experimental samples were intragastric administered once daily 24 h after inoculation. The positive control CTX was intraperitoneal injected once daily. The animal body weight was recorded every day.

mice H22 liver cancer = settings: background art; cited from earlier work
[3] = test system: Bel7402 human liver cancer cell; assay: Cytotoxic activity assay (MTT), Bel7402; format: cell-based; settings: Bel-7402, 120 h, 5 days
Description: (§1) To evaluate the in vitro antitumor activity of (+)-13a-(S)-Deoxytylophorinine salts in this invention, Cytotoxic activity assay (MTT) experiment was persued.
(§2) 1. Tumor cells at log phase were incubated on 96-well plates at a density of 1˜1.0×10^4 cells/ml, 100 μl/well. Cells were cultured for 24 h at 37° C. in a cell incubator with 5% CO2.
(§3) 2. The treatment cells were exposed to the tested agents at different concentrations and cultured for 5 days in a cell incubator with full humidity incubator.
(§4) 3. The incubation medium was removed, then 100 μl 0.04% MTT was added to each well and Cells were cultured for 4 hours under the same conditions.
(§5) 4. The incubation medium was removed, then 150 μl DMSO was added to each well, the absorbance at a reference wavelength of 450 nm and a test wavelength of 570 nm was read. Drug inhibitory rate was calculated.

[4] = test system: Hct8 human colon cancer cell; assay: Cytotoxic activity assay (MTT), Hct8; format: cell-based; settings: HCT-8, 120 h, 5 days
Description: as §1, §2, §3, §4, §5

[5] = high dose × 7 d, equal moles: prototype 5.0, tartrate 7.05, maleate 6.60, citrate 7.90 mg/kg
[6] = low dose × 7 d, equal moles: prototype 2.5, tartrate 3.53, maleate 3.30, citrate 3.95 mg/kg

SMILES: COc1ccc2c3c(c4cc(OC)c(OC)cc4c2c1)CN1CCC[C@H]1C3 [(+)-13a-(S)-deoxytylophorinine, reference compound]
- t½z ([1]; 6 mg/kg oral, mice, non-compartment model): 26.4 min
- AUC(0-inf) ([1]; male, ICR, mouse, po, 6 mg/kg): 33.7 ng·h/mL
- AUC(0-t) ([1]; male, ICR, mouse, po, 6 mg/kg): 33.3 ng·h/mL
- Cmax ([1]; male, ICR, mouse, po, 6 mg/kg): 41.5 ng/mL
- MRT inf ([1]; male, ICR, mouse, po, 6 mg/kg): 48 min
- MRT last ([1]; male, ICR, mouse, po, 6 mg/kg): 46.2 min
- Tmax ([1]; male, ICR, mouse, po, 6 mg/kg): 15 min
- Solubility in water (Solubility in water): Insoluble
- Solubility in water (words) (Solubility in water; statement in text, listed as 13a-(S)-Deoxytylophorinine): insoluble in water
- Solubility in water (words) (Solubility in water; statement in text, listed as (+)-13a-(S)-Deoxytylophorinine): can not be dissolved in water
- Anti-tumor proliferative activity, mice Lewis lung cancer (mice Lewis lung cancer): notable anti-tumor proliferative activity
- Toxicity in the liver and kidney [2]: not toxic in the liver and kidney
- Animal No. (Initial/Final) (H22 tumor-bearing mice; [5]): 6/4
- Body Weight(g) Final (H22 tumor-bearing mice; [5]): 15.63 ± 2.16 g
- Body Weight(g) Initial (H22 tumor-bearing mice; [5]): 23.50 ± 2.51 g⁻¹
- Inhibition (%) (H22 tumor-bearing mice; [5]): 74.02** %
- Tumor Weight (g, mean ± SD) (H22 tumor-bearing mice; [5]): 0.30 ± 0.12 g
- Animal No. (Initial/Final) (H22 tumor-bearing mice; [6]): 6/6
- Body Weight(g) Final (H22 tumor-bearing mice; [6]): 23.31 ± 2.14 g
- Body Weight(g) Initial (H22 tumor-bearing mice; [6]): 23.00 ± 1.55 g⁻¹
- Inhibition (%) (H22 tumor-bearing mice; [6]): 42.79* %
- Tumor Weight (g, mean ± SD) (H22 tumor-bearing mice; [6]): 0.66 ± 0.21 g
- Anti-tumor proliferative activity, mice H22 liver cancer (mice H22 liver cancer): notable anti-tumor proliferative activity

SMILES: CC(O)C(=O)O.COc1ccc2c3c(c4cc(OC)c(OC)cc4c2c1)CN1CCC[C@H]1C3 [Lactate, (+)-13a-(S)-deoxytylophorinine Lactate]
- IC50 [3]: 40 nM
- Solubility in water (words) (Solubility in water): soluble in water
- solubility (Solubility in water; water): 120 mg/mL
- IC50 [4]: 79 nM
